{"source": "patent US20260027116A1", "about": "“Methods of Treating Chronic Graft-Versus-Host Disease Following Allogeneic Hematopoietic Stem Cell Transplantation” (Kadmon Corporation, LLC, priority 2022, published 2026)", "system": "lung function", "assay": "Example 1: percent predicted TLC change from baseline", "type": "in vivo, human", "details": "mean (SD)", "description": "Change From Baseline in Percent Predicted Total Lung Capacity (TLC) at Each Specified Time Points. TLC is the volume of air in the lungs upon the maximum effort of inspiration. Baseline value was defined as valid and last non-missing value obtained within 28 days prior to participant receiving first study medication. EOT visit was performed within 3 days after the participant's last dose of study drug. […] Analysis was performed on mITT population. Here, ‘number analyzed’=participants with available data for each specified category. Here, ‘0’ in the number analyzed field signifies that none of the participants were available for the analysis at the specified time points.", "data": [{"smiles": "CC(C)NC(=O)COc1cccc(-c2nc(Nc3ccc4[nH]ncc4c3)c3ccccc3n2)c1", "note": "[Belumosudil, 2-{3-[4-(1H-indazol-5-ylamino)-2-quinazolinyl]phenoxy}-N-(propan-2-yl) acetamide]", "values": [{"measurement": "Change From Baseline in Percent Predicted Total Lung Capacity (TLC)", "setting": "Cohort 1: 200 mg QD, Cycle 3, Day 1", "result": "1.6 (11.9) Percent Predicted TLC"}, {"measurement": "Change From Baseline in Percent Predicted Total Lung Capacity (TLC)", "setting": "Cohort 1: 200 mg QD, Cycle 5, Day 1", "result": "−2.6 (16.8) Percent Predicted TLC"}, {"measurement": "Change From Baseline in Percent Predicted Total Lung Capacity (TLC)", "setting": "Cohort 1: 200 mg QD, Cycle 7, Day 1", "result": "−3.7 (6.6) Percent Predicted TLC"}, {"measurement": "Change From Baseline in Percent Predicted Total Lung Capacity (TLC)", "setting": "Cohort 1: 200 mg QD, Cycle 9, Day 1", "result": "−2.9 (6.1) Percent Predicted TLC"}, {"measurement": "Change From Baseline in Percent Predicted Total Lung Capacity (TLC)", "setting": "Cohort 1: 200 mg QD, Cycle 11, Day 1", "result": "0.7 (4.3) Percent Predicted TLC"}, {"measurement": "Change From Baseline in Percent Predicted Total Lung Capacity (TLC)", "setting": "Cohort 1: 200 mg QD, Cycle 12, Day 1", "result": "−9.0 (—) Percent Predicted TLC"}, {"measurement": "Change From Baseline in Percent Predicted Total Lung Capacity (TLC)", "setting": "Cohort 1: 200 mg QD, Cycle 13, Day 1", "result": "−0.3 (7.1) Percent Predicted TLC"}, {"measurement": "Change From Baseline in Percent Predicted Total Lung Capacity (TLC)", "setting": "Cohort 1: 200 mg QD, Cycle 14, Day 1", "result": "23.0 (—) Percent Predicted TLC"}, {"measurement": "Change From Baseline in Percent Predicted Total Lung Capacity (TLC)", "setting": "Cohort 1: 200 mg QD, Cycle 15, Day 1", "result": "−2.8 (10.8) Percent Predicted TLC"}, {"measurement": "Change From Baseline in Percent Predicted Total Lung Capacity (TLC)", "setting": "Cohort 1: 200 mg QD, Cycle 16, Day 1", "result": "−3.0 (—) Percent Predicted TLC"}, {"measurement": "Change From Baseline in Percent Predicted Total Lung Capacity (TLC)", "setting": "Cohort 1: 200 mg QD, Cycle 17, Day 1", "result": "−3.0 (6.2) Percent Predicted TLC"}, {"measurement": "Change From Baseline in Percent Predicted Total Lung Capacity (TLC)", "setting": "Cohort 1: 200 mg QD, Cycle 19, Day 1", "result": "−4.6 (6.1) Percent Predicted TLC"}, {"measurement": "Change From Baseline in Percent Predicted Total Lung Capacity (TLC)", "setting": "Cohort 1: 200 mg QD, Cycle 21, Day 1", "result": "0.3 (9.3) Percent Predicted TLC"}, {"measurement": "Change From Baseline in Percent Predicted Total Lung Capacity (TLC)", "setting": "Cohort 1: 200 mg QD, Cycle 23, Day 1", "result": "0.0 (8.7) Percent Predicted TLC"}, {"measurement": "Change From Baseline in Percent Predicted Total Lung Capacity (TLC)", "setting": "Cohort 1: 200 mg QD, Cycle 24, Day 1", "result": "0.0 (—) Percent Predicted TLC"}, {"measurement": "Change From Baseline in Percent Predicted Total Lung Capacity (TLC)", "setting": "Cohort 1: 200 mg QD, Cycle 25, Day 1", "result": "−3.0 (7.1) Percent Predicted TLC"}, {"measurement": "Change From Baseline in Percent Predicted Total Lung Capacity (TLC)", "setting": "Cohort 1: 200 mg QD, Cycle 26, Day 1", "result": "0.0 (—) Percent Predicted TLC"}, {"measurement": "Change From Baseline in Percent Predicted Total Lung Capacity (TLC)", "setting": "Cohort 1: 200 mg QD, Cycle 27, Day 1", "result": "5.5 (16.3) Percent Predicted TLC"}, {"measurement": "Change From Baseline in Percent Predicted Total Lung Capacity (TLC)", "setting": "Cohort 1: 200 mg QD, Cycle 29, Day 1", "result": "−1.0 (17.0) Percent Predicted TLC"}, {"measurement": "Change From Baseline in Percent Predicted Total Lung Capacity (TLC)", "setting": "Cohort 1: 200 mg QD, Cycle 30, Day 1", "result": "7.0 (—) Percent Predicted TLC"}, {"measurement": "Change From Baseline in Percent Predicted Total Lung Capacity (TLC)", "setting": "Cohort 1: 200 mg QD, Cycle 31, Day 1", "result": "7.5 (17.7) Percent Predicted TLC"}, {"measurement": "Change From Baseline in Percent Predicted Total Lung Capacity (TLC)", "setting": "Cohort 1: 200 mg QD, Cycle 32, Day 1", "result": "1.0 (—) Percent Predicted TLC"}, {"measurement": "Change From Baseline in Percent Predicted Total Lung Capacity (TLC)", "setting": "Cohort 1: 200 mg QD, Cycle 33, Day 1", "result": "14.0 (11.3) Percent Predicted TLC"}, {"measurement": "Change From Baseline in Percent Predicted Total Lung Capacity (TLC)", "setting": "Cohort 1: 200 mg QD, Cycle 34, Day 1", "result": "2.0 (—) Percent Predicted TLC"}, {"measurement": "Change From Baseline in Percent Predicted Total Lung Capacity (TLC)", "setting": "Cohort 1: 200 mg QD, Cycle 35, Day 1", "result": "10.5 (7.8) Percent Predicted TLC"}, {"measurement": "Change From Baseline in Percent Predicted Total Lung Capacity (TLC)", "setting": "Cohort 1: 200 mg QD, Cycle 36, Day 1", "result": "6.0 (—) Percent Predicted TLC"}, {"measurement": "Change From Baseline in Percent Predicted Total Lung Capacity (TLC)", "setting": "Cohort 1: 200 mg QD, Cycle 48, Day 1", "result": "−13.0 (—) Percent Predicted TLC"}, {"measurement": "Change From Baseline in Percent Predicted Total Lung Capacity (TLC)", "setting": "Cohort 1: 200 mg QD, Cycle 49, Day 1", "result": "5.0 (—) Percent Predicted TLC"}, {"measurement": "Change From Baseline in Percent Predicted Total Lung Capacity (TLC)", "setting": "Cohort 1: 200 mg QD, Cycle 51, Day 1", "result": "15.0 (—) Percent Predicted TLC"}, {"measurement": "Change From Baseline in Percent Predicted Total Lung Capacity (TLC)", "setting": "Cohort 1: 200 mg QD, Cycle 52, Day 1", "result": "1.0 (—) Percent Predicted TLC"}, {"measurement": "Change From Baseline in Percent Predicted Total Lung Capacity (TLC)", "setting": "Cohort 1: 200 mg QD, Cycle 53, Day 1", "result": "15.0 (—) Percent Predicted TLC"}, {"measurement": "Change From Baseline in Percent Predicted Total Lung Capacity (TLC)", "setting": "Cohort 1: 200 mg QD, Cycle 54, Day 1", "result": "4.0 (—) Percent Predicted TLC"}, {"measurement": "Change From Baseline in Percent Predicted Total Lung Capacity (TLC)", "setting": "Cohort 1: 200 mg QD, Cycle 55, Day 1", "result": "29.0 (—) Percent Predicted TLC"}, {"measurement": "Change From Baseline in Percent Predicted Total Lung Capacity (TLC)", "setting": "Cohort 1: 200 mg QD, Cycle 56, Day 1", "result": "9.0 (—) Percent Predicted TLC"}, {"measurement": "Change From Baseline in Percent Predicted Total Lung Capacity (TLC)", "setting": "Cohort 1: 200 mg QD, Cycle 57, Day 1", "result": "18.0 (—) Percent Predicted TLC"}, {"measurement": "Change From Baseline in Percent Predicted Total Lung Capacity (TLC)", "setting": "Cohort 1: 200 mg QD, Cycle 58, Day 1", "result": "5.0 (—) Percent Predicted TLC"}, {"measurement": "Change From Baseline in Percent Predicted Total Lung Capacity (TLC)", "setting": "Cohort 1: 200 mg QD, Cycle 60, Day 1", "result": "−3.0 (—) Percent Predicted TLC"}, {"measurement": "Change From Baseline in Percent Predicted Total Lung Capacity (TLC)", "setting": "Cohort 1: 200 mg QD, Cycle 61, Day 1", "result": "5.0 (—) Percent Predicted TLC"}, {"measurement": "Change From Baseline in Percent Predicted Total Lung Capacity (TLC)", "setting": "Cohort 1: 200 mg QD, Cycle 62, Day 1", "result": "−1.0 (—) Percent Predicted TLC"}, {"measurement": "Change From Baseline in Percent Predicted Total Lung Capacity (TLC)", "setting": "Cohort 1: 200 mg QD, Cycle 63, Day 1", "result": "12.0 (—) Percent Predicted TLC"}, {"measurement": "Change From Baseline in Percent Predicted Total Lung Capacity (TLC)", "setting": "Cohort 1: 200 mg QD, Cycle 67, Day 1", "result": "12.0 (—) Percent Predicted TLC"}, {"measurement": "Change From Baseline in Percent Predicted Total Lung Capacity (TLC)", "setting": "Cohort 1: 200 mg QD, EOT", "result": "5.2 (27.5) Percent Predicted TLC"}, {"measurement": "Change From Baseline in Percent Predicted Total Lung Capacity (TLC)", "setting": "Cohort 2: 200 mg BID, Cycle 3, Day 1", "result": "1.9 (8.5) Percent Predicted TLC"}, {"measurement": "Change From Baseline in Percent Predicted Total Lung Capacity (TLC)", "setting": "Cohort 2: 200 mg BID, Cycle 5, Day 1", "result": "−7.2 (10.5) Percent Predicted TLC"}, {"measurement": "Change From Baseline in Percent Predicted Total Lung Capacity (TLC)", "setting": "Cohort 2: 200 mg BID, Cycle 7, Day 1", "result": "−4.4 (6.3) Percent Predicted TLC"}, {"measurement": "Change From Baseline in Percent Predicted Total Lung Capacity (TLC)", "setting": "Cohort 2: 200 mg BID, Cycle 8, Day 1", "result": "−5.0 (—) Percent Predicted TLC"}, {"measurement": "Change From Baseline in Percent Predicted Total Lung Capacity (TLC)", "setting": "Cohort 2: 200 mg BID, Cycle 9, Day 1", "result": "−6.0 (8.5) Percent Predicted TLC"}, {"measurement": "Change From Baseline in Percent Predicted Total Lung Capacity (TLC)", "setting": "Cohort 2: 200 mg BID, Cycle 10, Day 1", "result": "−18.5 (6.4) Percent Predicted TLC"}, {"measurement": "Change From Baseline in Percent Predicted Total Lung Capacity (TLC)", "setting": "Cohort 2: 200 mg BID, Cycle 11, Day 1", "result": "−5.2 (11.2) Percent Predicted TLC"}, {"measurement": "Change From Baseline in Percent Predicted Total Lung Capacity (TLC)", "setting": "Cohort 2: 200 mg BID, Cycle 12, Day 1", "result": "0.0 (—) Percent Predicted TLC"}, {"measurement": "Change From Baseline in Percent Predicted Total Lung Capacity (TLC)", "setting": "Cohort 2: 200 mg BID, Cycle 13, Day 1", "result": "−10.3 (18.7) Percent Predicted TLC"}]}]}
